According to PMC6627067, “Probing Multi-Target Action of Phlorotannins as New Monoamine Oxidase Inhibitors and Dopaminergic Receptor Modulators with the Potential for Treatment of Neuronal Disorders” (Marine Drugs, 2019):
Several values for one entry are separate records, joined by “and”; a condition that tells them apart may be missing. Equal entries are not always repeated. Where two headings read alike, the source gives them in different places.

Tests used:
hM5 (CHRM5) [1] = target: T1, hM5 (CHRM5) (Homo sapiens, UniProt P08912); experiment: GPCR cell-based functional assay, intracellular Ca2+ level, M5
T1 sequence (P08912 1-532): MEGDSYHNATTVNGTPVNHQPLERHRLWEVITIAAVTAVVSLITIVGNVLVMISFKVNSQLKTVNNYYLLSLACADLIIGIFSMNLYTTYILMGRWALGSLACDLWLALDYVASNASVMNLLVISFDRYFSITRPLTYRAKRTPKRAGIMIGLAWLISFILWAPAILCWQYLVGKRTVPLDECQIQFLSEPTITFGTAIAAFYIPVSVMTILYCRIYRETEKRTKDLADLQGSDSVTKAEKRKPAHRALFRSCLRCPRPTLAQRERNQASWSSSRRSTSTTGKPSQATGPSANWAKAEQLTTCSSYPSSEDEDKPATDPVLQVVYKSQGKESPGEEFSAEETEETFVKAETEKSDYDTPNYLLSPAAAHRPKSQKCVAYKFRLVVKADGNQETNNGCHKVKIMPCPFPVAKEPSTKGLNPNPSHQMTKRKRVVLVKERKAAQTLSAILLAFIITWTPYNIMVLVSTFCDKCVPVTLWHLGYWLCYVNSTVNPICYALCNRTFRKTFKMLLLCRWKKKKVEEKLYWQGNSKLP

hNK1 (TACR1) [2] = target: T2, hNK1 (TACR1) (Homo sapiens, UniProt P25103); experiment: GPCR cell-based functional assay, intracellular Ca2+ level, NK1; details: for % Stimulation of control agonist response, hNK1: agonist effect at 100 µM
h5-HT1A (HTR1A) [3] = target: T3, h5-HT1A (HTR1A) (Homo sapiens, UniProt P08908); experiment: GPCR cell-based functional assay, intracellular Ca2+ level, 5-HT1A
T3 sequence (P08908 1-422): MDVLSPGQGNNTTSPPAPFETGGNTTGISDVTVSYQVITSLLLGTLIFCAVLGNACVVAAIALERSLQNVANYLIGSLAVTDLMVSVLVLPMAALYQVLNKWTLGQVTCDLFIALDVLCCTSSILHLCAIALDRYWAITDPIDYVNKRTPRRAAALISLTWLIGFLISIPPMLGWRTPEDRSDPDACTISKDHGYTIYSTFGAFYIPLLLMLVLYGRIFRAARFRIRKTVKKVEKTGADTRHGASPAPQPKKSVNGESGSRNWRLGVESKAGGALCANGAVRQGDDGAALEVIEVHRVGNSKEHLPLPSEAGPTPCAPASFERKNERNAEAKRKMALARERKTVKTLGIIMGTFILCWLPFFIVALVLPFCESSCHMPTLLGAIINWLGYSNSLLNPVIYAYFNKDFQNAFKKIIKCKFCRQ

hV1A (AVPR1A) [4] = target: T4, hV1A (AVPR1A) (Homo sapiens, UniProt P37288); experiment: GPCR cell-based functional assay, intracellular Ca2+ level, V1A; details: for % Stimulation of control agonist response, hV1A: agonist effect at 100 µM
hD1 (DRD1) [5] = target: T5, hD1 (DRD1) (Homo sapiens, UniProt P21728); details: agonist effect at 100 µM
hD3 (DRD3) [6] = target: T6, hD3 (DRD3) (Homo sapiens, UniProt P35462); details: agonist effect at 100 µM
hMAO-A = target: T7, hMAO-A (Homo sapiens, UniProt P21397); set-up: method as in PMID 28251489; details: cited from earlier work; for SI (selective index): ratio of hMAO-A IC50/hMAO-B IC50; for IC50: recombinant hMAO-A, obtained from the literature
T7 sequence (P21397 1-527): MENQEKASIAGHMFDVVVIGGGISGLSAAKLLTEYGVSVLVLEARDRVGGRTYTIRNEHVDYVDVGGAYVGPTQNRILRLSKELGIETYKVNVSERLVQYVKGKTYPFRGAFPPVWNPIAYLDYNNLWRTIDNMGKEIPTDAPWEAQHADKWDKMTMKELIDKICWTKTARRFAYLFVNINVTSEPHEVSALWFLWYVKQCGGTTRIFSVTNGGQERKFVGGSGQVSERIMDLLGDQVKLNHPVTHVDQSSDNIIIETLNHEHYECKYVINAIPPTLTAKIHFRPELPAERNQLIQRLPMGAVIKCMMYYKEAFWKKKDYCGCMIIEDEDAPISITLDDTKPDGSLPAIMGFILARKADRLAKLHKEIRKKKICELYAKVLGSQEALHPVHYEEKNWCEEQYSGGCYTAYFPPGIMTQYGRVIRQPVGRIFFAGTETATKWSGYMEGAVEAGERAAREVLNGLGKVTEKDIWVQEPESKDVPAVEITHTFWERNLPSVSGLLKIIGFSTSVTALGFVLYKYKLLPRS

hMAO-B = target: T8, hMAO-B (Homo sapiens, UniProt P27338); set-up: method as in PMID 28251489; details: cited from earlier work; for IC50: recombinant hMAO-B, obtained from the literature
T8 sequence (P27338 1-520): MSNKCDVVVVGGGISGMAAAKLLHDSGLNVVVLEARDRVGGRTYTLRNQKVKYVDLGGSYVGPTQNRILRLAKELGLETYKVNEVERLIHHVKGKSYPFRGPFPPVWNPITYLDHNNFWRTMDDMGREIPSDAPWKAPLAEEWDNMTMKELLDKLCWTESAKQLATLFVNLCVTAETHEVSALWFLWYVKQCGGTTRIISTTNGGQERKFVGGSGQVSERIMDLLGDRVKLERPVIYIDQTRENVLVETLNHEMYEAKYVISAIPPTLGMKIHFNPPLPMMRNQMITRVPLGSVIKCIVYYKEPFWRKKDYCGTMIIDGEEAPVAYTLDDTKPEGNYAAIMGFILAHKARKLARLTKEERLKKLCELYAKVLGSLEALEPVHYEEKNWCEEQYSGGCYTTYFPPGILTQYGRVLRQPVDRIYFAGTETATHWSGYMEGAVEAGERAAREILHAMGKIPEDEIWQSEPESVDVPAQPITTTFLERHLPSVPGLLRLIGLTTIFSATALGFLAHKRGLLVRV

[7] = set-up: method as in PMID 25996411; details: cited from earlier work
hD1 (DRD1) [8] = target: T5, hD1 (DRD1); experiment: cell-based; details: read-out: % Inhibition of control agonist response, hD1
hD3 (DRD3) [9] = target: T6, hD3 (DRD3); experiment: cell-based
hD4 (DRD4) [10] = target: T9, hD4 (DRD4) (Homo sapiens, UniProt P21917); details: for % Stimulation of control agonist response, hD4: agonist effect at 100 µM
T9 sequence (P21917 1-419): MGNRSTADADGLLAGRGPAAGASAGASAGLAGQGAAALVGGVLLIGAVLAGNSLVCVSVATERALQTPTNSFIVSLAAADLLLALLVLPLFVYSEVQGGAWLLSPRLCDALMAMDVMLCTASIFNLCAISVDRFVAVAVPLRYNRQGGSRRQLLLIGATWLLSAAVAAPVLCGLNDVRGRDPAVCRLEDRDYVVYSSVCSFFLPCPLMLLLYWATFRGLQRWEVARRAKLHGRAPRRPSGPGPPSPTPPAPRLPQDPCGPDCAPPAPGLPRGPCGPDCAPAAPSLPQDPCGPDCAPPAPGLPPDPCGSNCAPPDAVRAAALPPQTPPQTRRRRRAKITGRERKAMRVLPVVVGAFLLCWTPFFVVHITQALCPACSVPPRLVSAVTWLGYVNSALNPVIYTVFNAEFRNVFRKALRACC

hM5 (CHRM5) [11] = target: T1, hM5 (CHRM5); details: previous GPCR cell-based study; cited from earlier work
hNK1 (TACR1) [12] = target: T2, hNK1 (TACR1); details: previous GPCR cell-based study; cited from earlier work
h5-HT1A (HTR1A) [13] = target: T3, h5-HT1A (HTR1A); details: previous GPCR cell-based study; cited from earlier work
hV1A (AVPR1A) [14] = target: T4, hV1A (AVPR1A); details: previous GPCR cell-based study; cited from earlier work
hD1 (DRD1) [15] = target: T5, hD1 (DRD1); set-up: host or cells: CHO cells; details: previous GPCR cell-based study; cited from earlier work
hD3 (DRD3) [16] = target: T6, hD3 (DRD3); set-up: host or cells: CHO cells; details: previous GPCR cell-based study; cited from earlier work
hD4 (DRD4) [17] = target: T9, hD4 (DRD4); set-up: host or cells: CHO cells; details: previous GPCR cell-based study; cited from earlier work

T2 sequence (P25103 whole entry): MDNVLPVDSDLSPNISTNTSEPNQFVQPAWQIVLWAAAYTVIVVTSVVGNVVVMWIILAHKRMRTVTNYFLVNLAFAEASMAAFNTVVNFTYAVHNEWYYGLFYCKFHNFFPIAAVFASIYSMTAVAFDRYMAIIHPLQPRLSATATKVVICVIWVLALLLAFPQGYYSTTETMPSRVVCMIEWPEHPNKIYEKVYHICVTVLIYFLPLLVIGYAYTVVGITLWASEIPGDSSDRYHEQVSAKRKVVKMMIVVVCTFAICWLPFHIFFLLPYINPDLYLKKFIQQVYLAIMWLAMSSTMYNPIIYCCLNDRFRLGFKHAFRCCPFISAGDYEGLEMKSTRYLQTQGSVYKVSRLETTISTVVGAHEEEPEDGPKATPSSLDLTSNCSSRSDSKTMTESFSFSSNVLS
T6 sequence (P35462 whole entry): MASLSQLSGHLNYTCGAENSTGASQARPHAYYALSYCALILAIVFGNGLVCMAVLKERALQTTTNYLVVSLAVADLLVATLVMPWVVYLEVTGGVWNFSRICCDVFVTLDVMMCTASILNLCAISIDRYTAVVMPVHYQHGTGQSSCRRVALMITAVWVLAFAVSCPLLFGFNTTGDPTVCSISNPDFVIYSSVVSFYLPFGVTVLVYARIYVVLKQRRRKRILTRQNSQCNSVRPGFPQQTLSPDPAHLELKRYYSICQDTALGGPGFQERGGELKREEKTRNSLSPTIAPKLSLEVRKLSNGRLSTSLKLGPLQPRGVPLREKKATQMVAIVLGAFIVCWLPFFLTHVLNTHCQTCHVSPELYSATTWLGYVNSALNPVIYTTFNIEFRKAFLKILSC
T4 sequence (P37288 whole entry): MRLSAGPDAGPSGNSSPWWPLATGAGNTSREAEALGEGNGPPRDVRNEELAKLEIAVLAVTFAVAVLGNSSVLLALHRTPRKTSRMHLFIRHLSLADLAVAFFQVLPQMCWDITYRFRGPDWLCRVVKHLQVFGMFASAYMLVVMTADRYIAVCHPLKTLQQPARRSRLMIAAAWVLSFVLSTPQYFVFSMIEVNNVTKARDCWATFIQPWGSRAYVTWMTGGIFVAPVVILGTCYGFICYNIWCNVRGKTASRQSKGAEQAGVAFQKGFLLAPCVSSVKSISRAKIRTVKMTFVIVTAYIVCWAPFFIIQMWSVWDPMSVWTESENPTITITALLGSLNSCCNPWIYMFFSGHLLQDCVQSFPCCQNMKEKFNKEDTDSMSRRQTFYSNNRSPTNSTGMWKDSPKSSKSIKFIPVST
T5 sequence (P21728 whole entry): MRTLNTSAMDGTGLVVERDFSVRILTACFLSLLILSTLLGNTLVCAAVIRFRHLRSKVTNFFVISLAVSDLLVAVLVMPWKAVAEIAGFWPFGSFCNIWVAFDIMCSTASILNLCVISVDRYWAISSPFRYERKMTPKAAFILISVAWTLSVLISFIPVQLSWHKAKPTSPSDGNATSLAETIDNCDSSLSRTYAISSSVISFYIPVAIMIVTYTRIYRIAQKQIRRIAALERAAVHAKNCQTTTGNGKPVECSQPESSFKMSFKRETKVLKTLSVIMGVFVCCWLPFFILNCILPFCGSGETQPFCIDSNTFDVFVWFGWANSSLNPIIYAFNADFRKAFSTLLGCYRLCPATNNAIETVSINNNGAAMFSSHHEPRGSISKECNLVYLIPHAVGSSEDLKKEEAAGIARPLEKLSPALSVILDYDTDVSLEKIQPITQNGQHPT

Which “% Stimulation of control agonist response, hM5” value (hM5 (CHRM5) [1]; agonist effect at 100 µM) does the source give for `Oc1cc(O)cc(Oc2c(O)cc(O)c3c2Oc2c(O)cc(Oc4c(O)cc(Oc5c(O)cc(O)c6c5Oc5c(O)cc(O)cc5O6)cc4O)cc2O3)c1` [Dieckol, dieckol] here?
Its value is 7.60 ± 17.11 ^AB %.

And the inhibition at 100 µM (hM5 (CHRM5) [1]; antagonist effect at 100 µM, read-out: % Inhibition of control agonist response, hM5)?
Its inhibition at 100 µM is 19.6%.

What about the “% Stimulation of control agonist response, hNK1” value (hNK1 (TACR1) [2]) of the same compound?
The value was 54.70 ± 1.41 ^B %.

And the “% Stimulation of control agonist response, hNK1” value (hNK1 (TACR1) [2]; listed as dieckol)?
The value was 54.70%.

And the inhibition at 100 µM (hNK1 (TACR1) [2]; antagonist effect at 100 µM, read-out: % Inhibition of control agonist response, hNK1)?
The inhibition at 100 µM was 77.7%.

What about the “% Stimulation of control agonist response, h5-HT1A” value (h5-HT1A (HTR1A) [3]; agonist effect at 100 µM) of the same compound?
The value was 1.75 ± 0.64 ^A %.

And the inhibition at 100 µM (h5-HT1A (HTR1A) [3]; antagonist effect at 100 µM, read-out: % Inhibition of control agonist response, h5-HT1A)?
The inhibition at 100 µM was 76.8%.

What about the “% Stimulation of control agonist response, hV1A” value (hV1A (AVPR1A) [4]) of the same compound?
Its value is 64.20 ± 0.14 ^A %.

And the “% Stimulation of control agonist response, hV1A” value (hV1A (AVPR1A) [4]; listed as dieckol)?
The value was 64.20 ± 0.14% and 64.2%.

What about the inhibition at 100 µM (hV1A (AVPR1A) [4]; antagonist effect at 100 µM, read-out: % Inhibition of control agonist response, hV1A) of the same compound?
Its inhibition at 100 µM is 46.2%.

And the “% Stimulation of control agonist response, hD1” value (hD1 (DRD1) [5])?
The value was 1.05 ± 0.21 ^A %.

What about the “% Stimulation of control agonist response, hD3” value (hD3 (DRD3) [6]) of the same compound?
Its value is 81.10 ± 0.66 ^B %.

What about the “% Stimulation of control agonist response, hD3” value (hD3 (DRD3) [6]; listed as dieckol) of the same compound?
The value was 81.10 ± 0.66%.

And the Ki (hMAO-A)?
Its Ki is 20.3 µM.

And the “SI (selective index)” value (hMAO-A)?
Its value is 0.26.

What about the IC50 (hMAO-A) of the same compound?
Its IC50 is 11.4 ± 1.06 µM.

And the Ki (hMAO-B)?
The Ki was 18.5 µM.

And the IC50 (hMAO-B)?
The IC50 was 43.4 ± 0.73 µM.

What about the BBB penetration [7] of the same compound?
The BBB penetration was “effectively penetrate the BBB”.

And the inhibition at 100 µM (hD1 (DRD1) [8])?
Its inhibition at 100 µM is 60.6%.

What about the EC50 (hD3 (DRD3) [9]) of the same compound?
Its EC50 is 44.2 ± 3.25 µM.

What about the inhibition at 100 µM (hD3 (DRD3) [9]; read-out: % Inhibition of control agonist response, hD3) of the same compound?
Its inhibition at 100 µM is -2.5%.

What about the EC50 (hD4 (DRD4) [10]) of the same compound?
The EC50 was 34 ± 8.62 µM.

And the “% Stimulation of control agonist response, hD4” value (hD4 (DRD4) [10])?
The value was 74.43 ± 6.37 ^B %.

What about the “% Stimulation of control agonist response, hD4” value (hD4 (DRD4) [10]; listed as dieckol) of the same compound?
Its value is 74.43 ± 6.37%.

What about the inhibition at 100 µM (hD4 (DRD4) [10]; read-out: % Inhibition of control agonist response, hD4) of the same compound?
The inhibition at 100 µM was -5.35%.

For `Oc1cc(O)cc(Oc2c(O)cc(O)c3c2Oc2c(O)cc(O)cc2O3)c1` [Eckol, eckol], which “Inhibition type hMAO-A” value (hMAO-A; NC = noncompetitive, Mixed = mixed type) is on record?
The value was “Mixed”.

What about the Ki (hMAO-A) of the same compound?
The Ki was 20.3 µM.

And the “SI (selective index)” value (hMAO-A)?
Its value is 0.09.

What about the IC50 (hMAO-A) of the same compound?
The IC50 was 7.2 ± 0.71 µM.

And the Ki (hMAO-B)?
Its Ki is 163 µM.

And the IC50 (hMAO-B)?
Its IC50 is 83.4 ± 1.48 µM.

What about the “Effect on M5 receptor” value (hM5 (CHRM5) [11]) of the same compound?
The value was “null effects”.

And the “Effect on NK1 receptor” value (hNK1 (TACR1) [12])?
The value was “null effects”.

And the “Effect on 5HT1A receptor” value (h5-HT1A (HTR1A) [13])?
Its value is “null effects”.

And the “Effect on V1A receptor” value (hV1A (AVPR1A) [14])?
The value was “null effects”.

And the “Effect on D1R” value (hD1 (DRD1) [15])?
The value was “null effects”.

What about the “Effect on hD3R” value (hD3 (DRD3) [16]) of the same compound?
Its value is “agonist”.

And the “Effect on hD4R” value (hD4 (DRD4) [17])?
The value was “agonist”.
